Data set [1] deals with human breast tumors. In words: HPLC and mass spectrometry of tamoxifen metabolites in human breast tumors failing tamoxifen (Example 3). It counts as in vivo. The note with it: HPLC / EI-MS. An excerpt:
(§1) Human breast tumors from various patients who failed tamoxifen therapy (20 mgs/day>one year) were obtained from the Breast Cancer Tumor Bank. A portion of the tumor was extracted, irradiated and analyzed by Mass Spectrometry (procedure described below). Tumor tissue was also obtained from an in vivo nude mouse model of acquired tamoxifen resistance. MCF-7 human breast tumors were harvested from nude mice after the development of tamoxifen resistance (4-6 months of tamoxifen administration, 500 ug/day). These tissues were frozen at -20° C. until analysis. Frozen tissue samples were weighed, homogenized, and extracted. Briefly, all samples were extracted with 6.0 ml of 2% butanol in hexane, vortexed for 1.0 min, and then centrifuged for 10 min at 1000×g. The organic phase was dried under N2 gas at 37° C. and reconstituted in 200 μl methanol prior to injection. The reconstituted samples were transferred to a Infrasil quartz cuvette (Fisher Scientific), irradiated for one minute with a 15 W Hg vapor lamp and injected onto a HPLC column.
The HPLC system consisted of a Beckman model 320 gradient liquid chromatograph, two model 110A pumps, and a model 420 controller. The HPLC was equipped with a reverse phase Altex C18 ultrasphere ODS column and a 100 μl injection loop. The mobil phase consisted of 7% H2 O and […] triethylamine in methanol. The flow rate of the mobil phase was set at 0.5 ml/min. The fluorescence of photochemically activated compounds was detected with an Applied Biosystems 980 fluorometer with excitation wavelength set at 266 nm. Retention times and peak heights were recorded with a Spectraphysics 4100 integrator.
Non-irradiated samples were also injected onto the HPLC column and fractions were collected every minute. Fractionations corresponding to the retention times noted for the bisphenol and monophenol tamoxifen were further evaluated using mass-Spectrometry. The mass spectrometric behavior of the mono and bis phenols under electron impact ionization mass-spectrometry (EI-MS) was utilized. HPLC separated samples, in glass vials, were extracted with methanol, injected into glass capillaries and dried. Samples were introduced via a direct insertion probe. Spectra were recorded at 70 eV over the mass range of 70-500 at 10 seconds per decade with a resolution of 1000. The probe was heated in stages to 200° C.

The subject of data set [2] is MCF-7 tumors. In words: HPLC of tamoxifen and metabolites in MCF-7 mouse tumors (Example 3). The note with it: for Presence in MCF-7 tamoxifen resistant mouse tumor: HPLC, FIG. 13.
Source text: as §1
(§2) The HPLC system consisted of a Beckman model 320 gradient liquid chromatograph, two model 110A pumps, and a model 420 controller. The HPLC was equipped with a reverse phase Altex C18 ultrasphere ODS column and a 100 μl injection loop. […] The flow rate of the mobil phase was set at 0.5 ml/min. The fluorescence of photochemically activated compounds was detected with an Applied Biosystems 980 fluorometer with excitation wavelength set at 266 nm. Retention times and peak heights were recorded with a Spectraphysics 4100 integrator.

Test in data set [3]: as above
The note with it: mouse, mcf-7 tumor, 500 ug/day.
Source text: as §1, §2

For data set [4] the following is noted: cited from earlier work.
Data set [5] concerns human tumor specimens. In words: HPLC of tamoxifen and 4-OH-TAM isomers in tumors of tamoxifen-treated patients (Example 2). It counts as in vivo. Conditions: for cis versus trans 4-OH-TAM in tumor nuclear pellets: patients with clinically-evident tumor resistance, FIG. 8. How it is done: (§3) Quantification of tamoxifen and its metabolites in tumor specimens was performed using photactivation and high performance liquid chromatography (HPLC) analysis. To summarize: Each tumor sample was weighed, spiked with an internal standard, and homogenized. Tissue samples were then extracted with 2% n-butanol in hexane and irradiated with high intensity ultraviolet light (254 nm). Samples were analyzed by HPLC using a C-18 reverse phase column and eluted isocratically with a mobile phase of water (7%) and triethylamine (0.25%) in methanol. All solvents were of HPLC grade. Fluorescence of all compounds was measured at a wavelength of 266 nm. […] In some samples, the tumor was first homogenized and then the nuclear pellet obtained by centrifugation. HPLC tamoxifen measurements were made on extracts of the entire tumor specimen or on subcellular fractions including the cytosol or-the total nuclear pellet. In some cases, the nuclear pellet was further extracted in 0.4M KCl to extract primary metabolites bound to estrogen receptor.
1) identification and measurement of tamoxifen and its metabolites in tumors isolated from tamoxifen-treated patients who are known treatment failures;
There are two tamoxifen-sensitive tumors (L281 and G375) for comparison because patients responding to treatment are not usually biopsied during the responsive phase of their disease.

The conditions of data set [6]: in vitro; cited from earlier work.
Data set [7] relates to T47D human breast cell. Conditions: cited from earlier work.
For data set [8] the following is noted: in vivo; cited from earlier work.
For data set [9], the system named is MCF-7 tumors. In words: HPLC quantification of tamoxifen and cis/trans-4-hydroxytamoxifen ratio in MCF-7 tumors from tamoxifen-treated mice (total tumor, nuclear pellet, KCl nuclear extract). It counts as in vivo. Conditions: for Mean 4-OH-TAM cis/trans ratio: p < 0.0005. How it is done: In order to examine the relationship between tamoxifen metabolites and tamoxifen resistance, athymic Balb/c nude mice were implanted with human breast cancer tumor cells (MCF-7). Mice were treated daily for 4-6 months with subcutaneous tamoxifen. After tamoxifen resistance developed and tumor progression was observed, mice were sacrificed, and tumors were collected. In addition, tamoxifen-sensitive tumors were collected from mice still responding to tamoxifen therapy.
as §3, with “Samples were analyzed by HPLC using a C-18 reverse phase column and eluted isocratically with a mobile phase of water (7%) and triethylamine (0.25%) in methanol.” left out
The material extracted with KCl includes that bound to estrogen receptor.

[10] abbreviates: resistant MCF-7 mouse tumors, N = 10 (N-DES 9, monophenol 8).
Setting [11] is: sensitive MCF-7 mouse tumors, N = 6 (bisphenol 5).

SMILES strings stand for the structures. Where “and” joins values, the source holds several entries; their conditions need not be identical. Equal entries are not always repeated. Entries after “also recorded” stand apart in the source; their conditions may differ.

As to `CCC(=C(c1ccccc1)c1ccc(OCCN)cc1)c1ccccc1` [metabolite Z, didesmethyltamoxifen], in [1], the “Presence in human breast cancer tissue” value is recorded as “Peaks were also noted”.
On to `CCC(=C(c1ccccc1)c1ccc(O)cc1)c1ccccc1` [monophenol], for which the “Tamoxifen and metabolite concentrations, individual animal” value in data set [2] (resistant MCF-7 mouse tumors) was 24.30 .eta.g/g tissue and 9.63 .eta.g/g tissue and 21.99 .eta.g/g tissue and 20.66 .eta.g/g tissue and 232.66 .eta.g/g tissue and 47.82 .eta.g/g tissue and 27.13 .eta.g/g tissue; in [2] (sensitive MCF-7 mouse tumors) it was 7.69 .eta.g/g tissue and 109.07 .eta.g/g tissue and 160.99 .eta.g/g tissue and 37.72 .eta.g/g tissue and 265.25 .eta.g/g tissue and 137.93 .eta.g/g tissue. The “Tamoxifen and metabolite concentrations, mean (X)” value is 49.35 .eta.g/g tissue in data set [2] (setting [10]) and 119.78 .eta.g/g tissue in data set [2] (setting [11]). In addition, the concentration at 4380 h in data set [3] is 22 ng/g. Besides, the entries for the “Presence in human breast cancer tissue” value in data set [1] and in data set [1] (listed as monophenoltamoxifen) were “confirmed the presence of monophenol” and “present in tumors isolated from patients who failed tamoxifen therapy”, respectively. The “Presence in dog bile” value in [4] (dog, in vivo) is listed as “isolated from the bile of dogs”. For the same compound, the “Share of radiolabeled compounds present in bile” value in data set [4] (dogs) was “approximately 6%”.
On to `CCC(=C(c1ccc(O)cc1)c1ccc(OCCNC)cc1)c1ccccc1` [metabolite Bx], for which the “Presence in MCF-7 tamoxifen resistant mouse tumor” value in data set [2] was “noted on the chromatogram”. Besides, the “Presence in human breast cancer tissue” value in data set [1] was “Peaks were also noted”.
Consider `CC/C(=C(/c1ccc(O)cc1)c1ccc(OCCN(C)C)cc1)c1ccccc1` [cis 4-hydroxytamoxifen], for which, in [5], the “cis versus trans 4-OH-TAM in tumor nuclear pellets” value is given as “higher cis 4-OH-TAM in the nuclear pellets”.
With `CC/C(=C(\c1ccccc1)c1ccc(O)cc1)c1ccccc1` [Trans-metabolite E], the “Isomerization to cis metabolite E” value in [6] is listed as “demonstrated in vitro”. Moreover, the “Estrogen agonist activity of metabolite E isomers” value in data set [7] is listed as “weak partial agonist”.
As for `CC/C(=C(\c1ccc(O)cc1)c1ccc(OCCN(C)C)cc1)c1ccccc1` [trans 4-hydroxytamoxifen], in [5] (pellet (KCl nuclear extract), nd = not detectable, listed as 40H trans), the “40H trans peak height” value was 1024 and 1194.
Consider `CCC(=C(c1ccc(O)cc1)c1ccc(O)cc1)c1ccccc1` [bisphenol], for which the “Presence in MCF-7 tamoxifen resistant mouse tumor” value in data set [2] is given as “A very small peak was evident at a retention time similar to bisphenol”. For the same compound, the “Tamoxifen and metabolite concentrations, individual animal” value in [2] (resistant MCF-7 mouse tumors) is 15.12 .eta.g/g tissue and 18.34 .eta.g/g tissue and 4.26 .eta.g/g tissue and 3.93 .eta.g/g tissue and 32.75 .eta.g/g tissue and 9.77 .eta.g/g tissue and 43.87 .eta.g/g tissue and 52.72 .eta.g/g tissue and 23.38 .eta.g/g tissue; in data set [2] (sensitive MCF-7 mouse tumors), 44.27 .eta.g/g tissue and 33.90 .eta.g/g tissue and 39.80 .eta.g/g tissue and 1491.44 .eta.g/g tissue and 352.76 .eta.g/g tissue. The “Tamoxifen and metabolite concentrations, mean (X)” value in data set [2] (setting [10]) is given as 21.33 .eta.g/g tissue; in data set [2] (setting [11]) it was 392.43 .eta.g/g tissue. Besides, the “Presence in human breast cancer tissue” value is listed as “the presence of bisphenol could not be confirmed” in data set [1] and “also present in these patients” in data set [1] (listed as bisphenoltamoxifen).
As to `CC/C(=C(/c1ccccc1)c1ccc(O)cc1)c1ccccc1` [cis-metabolite E], in [7], the “Estrogen agonist activity of metabolite E isomers” value was “potent estrogen agonist” and the “Stimulation of T47D human breast cell growth” value is “more potent than bisphenol”.
In the case of `CCC(=C(c1ccccc1)c1ccc(OCCNC)cc1)c1ccccc1` [N-desmethyltamoxifen], the “Tamoxifen and metabolite concentrations, individual animal” value was 19.65 .eta.g/g tissue and 68.12 .eta.g/g tissue and 38.44 .eta.g/g tissue and 135.44 .eta.g/g tissue and 50.27 .eta.g/g tissue and 65.70 .eta.g/g tissue and 127.29 .eta.g/g tissue and 100.43 .eta.g/g tissue in data set [2] (resistant MCF-7 mouse tumors); 124.70 .eta.g/g tissue and 331.82 .eta.g/g tissue and 534.62 .eta.g/g tissue and 5.95 .eta.g/g tissue and 322.99 .eta.g/g tissue and 359.67 .eta.g/g tissue in [2] (sensitive MCF-7 mouse tumors). In addition, the “Tamoxifen and metabolite concentrations, mean (X)” value in [2] (setting [10]) is 71.28 .eta.g/g tissue; in data set [2] (setting [11]) it was 279.95 .eta.g/g tissue. Besides, in data set [3], the concentration at 4380 h was 135 ng/g. Moreover, the “Occurrence in human serum” value in data set [8] was “major metabolite found in human serum”.
In the case of `CCC(=C(c1ccc(O)cc1)c1ccc(OCCN(C)C)cc1)c1ccccc1` [4-OH-TAM, 4-hydroxytamoxifen], the “Cis/trans 4-OH-TAM ratio, individual tumor” value in data set [9] (resistant MCF-7 tumors (N = 16)) was 0.86 and 0.812 and 0.442 and 0.929 and 1.019 and 0.777 and 1.073 and 0.49 and 0.724 and 0.868 and 0.59 and 0.73 and 1.16 and 0.76 and 0.932. Further, in [9] (resistant tumor, FIG. 7), the “cis 4-OH-TAM/trans-4-OH-TAM ratio in KCl-extracted nuclear pellets compared with other fractions” value is “larger in the nuclear pellets extracted with KCl”. For the same compound, in data set [9] (resistant tumors), the “C/T-OH-TAM ratio (summary)” value is 0.8-0.9, the “Median cis/trans 4-OH-TAM ratio” value is listed as 0.84, the “Number of tumors with cis/trans ratio > 0.60” value is 13/16 and the “Number of tumors with cis/trans ratio ≤ 0.60” value is given as 3/16. In addition, the “Range of cis/trans 4-OH-TAM ratio” value in data set [9] (resistant tumors) is 0.442-1.16. For the same compound, the “Mean 4-OH-TAM cis/trans ratio” value in data set [9] (resistant tumors, SD = 0.196) is recorded as 0.8141. Besides, the “cis/trans 4-OH-TAM ratio, resistant compared with sensitive tumors” value in [9] (resistant vs sensitive) is reported as “higher cis/trans ratios; also recorded: increase; also recorded: lower in sensitive than in resistant tumors; also recorded: the cis/trans ratio is higher in the resistant tumor”. In data set [9] (sensitive MCF-7 tumors (N = 16)), the “Cis/trans 4-OH-TAM ratio, individual tumor” value was 0.575 and 0.588 and 0.472 and 0.56 and 0.645 and 0.428 and 0.446 and 0.4632 and 0.476 and 0.506 and 0.34 and 0.486 and 0.38 and 1.0 and 0.77. Also, in [9] (sensitive tumors), the “C/T-OH-TAM ratio (summary)” value is given as 0.4-0.5, the “Median cis/trans 4-OH-TAM ratio” value turned out to be 0.48, the “Number of tumors with cis/trans ratio > 0.60” value was 3/16 and the “Number of tumors with cis/trans ratio ≤ 0.60” value is 13/16. Further, the “Range of cis/trans 4-OH-TAM ratio” value in data set [9] (sensitive tumors) is on record as 0.34-1.0. In addition, the “Mean 4-OH-TAM cis/trans ratio” value in data set [9] (sensitive tumors, SD = 0.168) is on record as 0.5297. The “cis versus trans 4-OH-TAM in tumor nuclear pellets” value in [5] was “greater cis than trans levels”. Also, the “cis/trans ratios in total tumor extract” value in data set [5] (tamoxifen-resistant patients' tumors, majority) is given as “relatively high cis/trans ratios in the total tumor extract”. In addition, the “cis/trans ratios” value in data set [5] (two tumors from tamoxifen-sensitive patients) was “low cis/trans ratios”.

(Values after patent US5384260A, “Detection of onset of antiestrogen resistance in breast cancer” (Board of Regents, The University of Texas System, priority 1993, dated 1995).)
